Experimental data reported in publication PMC6024615, “Effect of Biliary Drainage on the Toxicity and Toxicokinetics of Amanita exitialis in Beagles” (Toxins, 2018).
*1 amine or outer side, *2 acyl side, *3 side chain or, on linkers, in order; H or OH if unused. Where a SMILES comes first, the peptide text is derived from it. Bridges are numbered along the chain shown (N, C = ends). [ ]: non-standard residue; d: D form. Trp(2-yl) = O=C([C@H](Cc1c([*:3])[nH]c2ccccc12)N[*:1])[*:2]; Leu(4R-OH,5-OH) = C[C@](O)(CO)C[C@H](N)C(=O)O; dAsp(3S-OH) = N[C@@H](C(=O)O)[C@H](O)C(=O)O; cisHyp = O=C(O)[C@@H]1C[C@H](O)CN1

Experiment: Peptide toxins in the blood / toxicokinetics in beagles with biliary drainage
Assay type: in vivo, beagle dogs
Design: Dose normalized AUC (0–∞) / Dose normalized Cmax: unit not given here
Conditions: for T1/2: UPLC-ESI-MS/MS; for time at which toxins were detected in plasma after ingestion: beagles with biliary drainage, oral Amanita exitialis; for Vd/F: male, beagle, dog, read-out: Vz/F
Description: The study was approved by National Institute of Occupational Health and Poison Control review board for animal experiments. Twenty-four male beagles (age, 8–10 months; weight, 10 ± 1 kg) were obtained from Beijing Institute of Xieerxin Biology Resource (Beijing, China). They were randomly divided into four groups of six animals each: control, biliary drainage, and 20 and 60 mg/kg with biliary drainage groups. The biliary drainage operation was conducted in all groups barring the control group. The dogs were dressed in homemade underwear, coats, and Elizabeth circles for a week to ensure pre-experimental acclimatization (Figure S8a–c). After determining the baseline values for biochemical indicators, the dogs were fasted for 24 h but received water ad libitum. They were anesthetized by intravenous administration of pentobarbital sodium (3%, 1 mL/kg) during the surgery. A temperature of 38–39 °C was maintained with a warming mat. After skin preservation and sterilization, the abdominal cavity was opened through the central abdomen. The abdomen was explored and blunt dissection of the common bile duct was performed (Figure S8d). The common bile duct and its branches were ligated from the intestinal side. A 7.0-Fr drainage catheter (COOK, Bloomington, IN, USA) was percutaneously inserted into the gallbladder, and a medical drainage bag was connected to the drainage catheter coming out of the abdominal cavity. Each opened layer, including the peritoneum, abdominal wall muscle, and skin, was closed with suture. The operative incision was protected with sterile gauze and a bandage, and the dogs were dressed in homemade underwear, coats, and Elizabeth circles. The drainage bag was placed in the pocket of the coat (Figure S8e). After the anesthetic wore off, the dogs were placed in cages, and food and water were provided ad libitum. The operative incision was sterilized with iodophor twice a day until stitches were removed six days after surgery. The drainage bag was replaced every day. On the eighth day after surgery, the 20 and 60 mg/kg with biliary drainage groups were orally administered a lyophilized powder of Amanita exitialis in starch capsules. In control and bile drainage group, the beagle dogs were fed with empty capsules. Immediately after dosing, the animals were placed in their cages, and food and water were provided ad libitum. Dogs were sacrificed with an overdose of sodium pentobarbital at the end of the experiment. All procedures were performed according to the ethical standards of the National Institutes of Health Guide for Animal Welfare and approved by the Institutional Animal Care and Use Committee (EAWE-2017-005).
Peptide toxins in blood and urine samples were analyzed as described previously. Bile samples from Days 0–1, Days 1–2, Days 2–3, and Days 3–4 were collected and stored in medical drainage bags and the bile volume was recorded. Plasma and urine samples were stored at 2–8 °C until analysis for peptide toxins.
UPLC and MS/MS parameters were as described in our previous study. The limit of detection and limit of quantitation of each toxin in the bile were 0.03 mg/kg and 0.5 mg/kg, respectively.
Toxicokinetic parameters were described in our previous study. Measurement data are reported as mean ± standard deviation values and enumeration data are reported as percentage (%). […] SPSS 22.0 (IBM Corporation, Armonk, NY, USA, 2015) was used for statistical analysis. The criterion for statistical significance was p ≤ 0.05. Except for the biliary drainage operation, the animals and methods in our present study are in accordance with our previously published study. Thus, by directly comparing the data from this study with those from our published studies on Amanita exitialis-exposed beagles without biliary drainage, we can evaluate the impact of biliary drainage on the toxicity and toxicokinetics of Amanita exitialis in beagles.

[1] = 0 h after ingestion, 60 mg/kg with biliary drainage group
[2] = 20 mg/kg Amanita exitialis oral, biliary drainage, plasma, mean ± SD
[3] = 60 mg/kg Amanita exitialis oral, biliary drainage, plasma, mean ± SD
[4] = 0.25 h after ingestion, 20 mg/kg with biliary drainage group
[5] = 0.25 h after ingestion, 60 mg/kg with biliary drainage group
[6] = 0.5 h after ingestion, 20 mg/kg with biliary drainage group
[7] = 0.5 h after ingestion, 60 mg/kg with biliary drainage group
[8] = 1 h after ingestion, 20 mg/kg with biliary drainage group
[9] = 1 h after ingestion, 60 mg/kg with biliary drainage group
[10] = 1.5 h after ingestion, 20 mg/kg with biliary drainage group
[11] = 1.5 h after ingestion, 60 mg/kg with biliary drainage group
[12] = 2 h after ingestion, 20 mg/kg with biliary drainage group
[13] = 2 h after ingestion, 60 mg/kg with biliary drainage group
[14] = 3 h after ingestion, 20 mg/kg with biliary drainage group
[15] = 3 h after ingestion, 60 mg/kg with biliary drainage group
[16] = 4 h after ingestion, 20 mg/kg with biliary drainage group
[17] = 4 h after ingestion, 60 mg/kg with biliary drainage group
[18] = 5 h after ingestion, 20 mg/kg with biliary drainage group
[19] = 5 h after ingestion, 60 mg/kg with biliary drainage group
[20] = 6 h after ingestion, 20 mg/kg with biliary drainage group
[21] = 6 h after ingestion, 60 mg/kg with biliary drainage group
[22] = 8 h after ingestion, 20 mg/kg with biliary drainage group
[23] = 8 h after ingestion, 60 mg/kg with biliary drainage group
[24] = 10 h after ingestion, 20 mg/kg with biliary drainage group
[25] = 10 h after ingestion, 60 mg/kg with biliary drainage group
[26] = 12 h after ingestion, 20 mg/kg with biliary drainage group
[27] = 12 h after ingestion, 60 mg/kg with biliary drainage group
[28] = 24 h after ingestion, 20 mg/kg with biliary drainage group
[29] = 24 h after ingestion, 60 mg/kg with biliary drainage group
[30] = 36 h after ingestion, 20 mg/kg with biliary drainage group
[31] = 36 h after ingestion, 60 mg/kg with biliary drainage group
[32] = 48 h after ingestion, 20 mg/kg with biliary drainage group
[33] = 48 h after ingestion, 60 mg/kg with biliary drainage group

SMILES: CC[C@H](C)[C@@H]1NC(=O)CNC(=O)[C@@H]2Cc3c([nH]c4cc(O)ccc34)[S@+]([O-])C[C@H](NC(=O)CNC1=O)C(=O)N[C@@H](CC(N)=O)C(=O)N1C[C@H](O)C[C@H]1C(=O)N[C@@H]([C@@H](C)[C@@H](O)CO)C(=O)N2 [α-amanitin]
- detection rate of peptide toxins in blood [1]: 0%
- T1/2 [2]: 1.08 ± 0.76 h
- AUC (0–∞) [2]: 5.36 ± 3.17 µg·h/L
- CL/F [2]: 0.85 ± 0.43 L/h/kg
- Cmax [2]: 1.73 ± 0.58 µg/L
- Dose normalized AUC (0–∞) [2]: 138.9 ± 82.1
- Dose normalized Cmax [2]: 44 ± 15.1
- MRT (0–∞) [2]: 3.55 ± 0.8 h
- Tmax [2]: 1.38 ± 0.48 h
- Vz/F [2]: 1.07 ± 0.31 L/kg
- T1/2 [3]: 1.2 ± 0.58 h
- AUC (0–∞) [3]: 31.99 ± 9.65 ^a,* µg/L × h
- CL/F [3]: 0.36 ± 0.11 L/h/kg
- Cmax [3]: 12.25 ± 3.54 ^a,* µg/L
- Dose normalized AUC (0–∞) [3]: 238.2 ± 83.9
- Dose normalized Cmax [3]: 86.1 ± 30.8
- MRT (0–∞) [3]: 2.87 ± 0.43 h
- Tmax [3]: 1.13 ± 0.25 h
- detection rate of peptide toxins in blood [4]: 0%
- detection rate of peptide toxins in blood [5]: 0%
- detection rate of peptide toxins in blood [6]: 33%
- detection rate of peptide toxins in blood [7]: 33%
- detection rate of peptide toxins in blood [8]: 100%
- detection rate of peptide toxins in blood [9]: 100%
- detection rate of peptide toxins in blood [10]: 100%
- detection rate of peptide toxins in blood [11]: 100%
- detection rate of peptide toxins in blood [12]: 100%
- detection rate of peptide toxins in blood [13]: 100%
- detection rate of peptide toxins in blood [14]: 100%
- detection rate of peptide toxins in blood [15]: 100%
- detection rate of peptide toxins in blood [16]: 100%
- detection rate of peptide toxins in blood [17]: 100%
- detection rate of peptide toxins in blood [18]: 100%
- detection rate of peptide toxins in blood [19]: 100%
- detection rate of peptide toxins in blood [20]: 100%
- detection rate of peptide toxins in blood [21]: 100%
- detection rate of peptide toxins in blood [22]: 50%
- detection rate of peptide toxins in blood [23]: 50%
- detection rate of peptide toxins in blood [24]: 50%
- detection rate of peptide toxins in blood [25]: 50%
- detection rate of peptide toxins in blood [26]: 17%
- detection rate of peptide toxins in blood [27]: 33%
- detection rate of peptide toxins in blood [28]: 0%
- detection rate of peptide toxins in blood [29]: 0%
- detection rate of peptide toxins in blood [30]: 0%
- detection rate of peptide toxins in blood [31]: 0%
- detection rate of peptide toxins in blood [32]: 0%
- detection rate of peptide toxins in blood [33]: 0%
- time at which toxins were detected in plasma after ingestion: 30 min
- Vd/F [3]: 0.68 ± 0.48 L/kg

SMILES: CC(C)[C@@H]1NC(=O)[C@H](C[C@@](C)(O)CO)NC(=O)[C@@H]2Cc3c([nH]c4ccccc34)SC[C@H](NC(=O)[C@@H]([C@H](O)C(=O)O)NC1=O)C(=O)N1C[C@@H](O)C[C@H]1C(=O)N[C@@H](C)C(=O)N2 [phallacidin] (cyclo(A[Trp(2-yl)][Leu(4R-OH,5-OH)]V[dAsp(3S-OH)]C[cisHyp]); thioether 2-6)
- detection rate of peptide toxins in blood (0 h after ingestion, 20 mg/kg with biliary drainage group): 0%
- detection rate of peptide toxins in blood [1]: 0%
- T1/2 [3]: 0.62 ± 0.32 ^b,* h
- AUC (0–∞) [3]: 2.08 ± 2.06 ^b,* µg/L × h
- CL/F [3]: 1.1 ± 0.86 ^b,* L/h/kg
- Cmax [3]: 0.85 ± 0.37 ^b,* µg/L
- Dose normalized AUC (0–∞) [3]: 60.5 ± 60.2 ^b,*
- Dose normalized Cmax [3]: 24.8 ± 10.8 ^b,*
- MRT (0–∞) [3]: 1.95 ± 0.73 ^b,* h
- Tmax [3]: 1.38 ± 0.25 h
- detection rate of peptide toxins in blood [4]: 0%
- detection rate of peptide toxins in blood [5]: 33%
- detection rate of peptide toxins in blood [6]: 0%
- detection rate of peptide toxins in blood [7]: 33%
- detection rate of peptide toxins in blood [8]: 50%
- detection rate of peptide toxins in blood [9]: 100%
- detection rate of peptide toxins in blood [10]: 66%
- detection rate of peptide toxins in blood [11]: 100%
- detection rate of peptide toxins in blood [12]: 33%
- detection rate of peptide toxins in blood [13]: 100%
- detection rate of peptide toxins in blood [14]: 33%
- detection rate of peptide toxins in blood [15]: 50%
- detection rate of peptide toxins in blood [16]: 17%
- detection rate of peptide toxins in blood [17]: 50%
- detection rate of peptide toxins in blood [18]: 0%
- detection rate of peptide toxins in blood [19]: 33%
- detection rate of peptide toxins in blood [20]: 0%
- detection rate of peptide toxins in blood [21]: 17%
- detection rate of peptide toxins in blood [22]: 0%
- detection rate of peptide toxins in blood [23]: 0%
- detection rate of peptide toxins in blood [24]: 0%
- detection rate of peptide toxins in blood [25]: 0%
- detection rate of peptide toxins in blood [26]: 0%
- detection rate of peptide toxins in blood [27]: 0%
- detection rate of peptide toxins in blood [28]: 0%
- detection rate of peptide toxins in blood [29]: 0%
- detection rate of peptide toxins in blood [30]: 0%
- detection rate of peptide toxins in blood [31]: 0%
- detection rate of peptide toxins in blood [32]: 0%
- detection rate of peptide toxins in blood [33]: 0%
- time at which toxins were detected in plasma after ingestion: 30 min
- Vd/F [3]: 1.77 ± 0.57 L/kg
